Measurements as given in patent US20220153745A1, “DISUBSTITUTED BENZOTHIENYL-PYRROLOTRIAZINES AND THEIR USE AS FGFR KINASE INHIBITORS” (Bayer Intellectual Property GmbH, priority 2011, published 2022).
Structures can show the parent of a compound that is named as a salt.

Experiments:
Type in all cases: biochemical
mTOR = biological target: T1, mTOR (Homo sapiens, UniProt P42345); assay: mTOR kinase assay (TR-FRET, for comparative purposes); conditions: read-out: mTOR % inhibition @ 1 μM, mean inhibition at 1 μM test compound, 40 μM ATP
T1 construct: human mTOR amino acids from 1360 to 2549; purchased Invitrogen 4753; host or cells: insect cells

FGFR-1 = biological target: T2, FGFR-1 (Homo sapiens, UniProt P11362); assay: FGFR-1 high ATP kinase assay (TR-FRET); conditions: 2 mM ATP, 15 min pre-incubation; compounds of the invention (Table 1A)
T2 construct: human FGFR-1 from amino acids G400 to R800 as in GenBank entry NM_015850; purchased Proqinase 0101-0000-1; host or cells: SF9 insect cells (baculovirus)

FGFR-3 = biological target: T3, FGFR-3 (Homo sapiens, UniProt P22607); assay: FGFR-3 kinase assay (TR-FRET); conditions: 10 μM ATP, 15 min pre-incubation; compounds of the invention (Table 2A)
T3 construct: human FGFR-3 from amino acids R397 to T806 as in NCBI/Protein entry NP_000133.1; purchased Proqinase 1068-0000-1; host or cells: SF9 insect cells (baculovirus)
T3 sequence (P22607 397-806): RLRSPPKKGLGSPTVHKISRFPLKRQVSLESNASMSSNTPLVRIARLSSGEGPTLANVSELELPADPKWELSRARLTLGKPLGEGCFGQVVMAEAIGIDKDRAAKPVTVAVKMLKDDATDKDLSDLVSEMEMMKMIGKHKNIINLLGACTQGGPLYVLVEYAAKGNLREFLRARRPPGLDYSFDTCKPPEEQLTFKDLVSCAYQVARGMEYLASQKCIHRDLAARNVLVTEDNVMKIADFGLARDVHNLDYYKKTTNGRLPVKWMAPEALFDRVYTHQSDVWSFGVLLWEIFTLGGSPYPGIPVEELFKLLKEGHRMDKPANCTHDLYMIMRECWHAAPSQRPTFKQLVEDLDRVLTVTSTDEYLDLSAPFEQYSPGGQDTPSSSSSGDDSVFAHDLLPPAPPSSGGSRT

T1 sequence (P42345 1360-2549): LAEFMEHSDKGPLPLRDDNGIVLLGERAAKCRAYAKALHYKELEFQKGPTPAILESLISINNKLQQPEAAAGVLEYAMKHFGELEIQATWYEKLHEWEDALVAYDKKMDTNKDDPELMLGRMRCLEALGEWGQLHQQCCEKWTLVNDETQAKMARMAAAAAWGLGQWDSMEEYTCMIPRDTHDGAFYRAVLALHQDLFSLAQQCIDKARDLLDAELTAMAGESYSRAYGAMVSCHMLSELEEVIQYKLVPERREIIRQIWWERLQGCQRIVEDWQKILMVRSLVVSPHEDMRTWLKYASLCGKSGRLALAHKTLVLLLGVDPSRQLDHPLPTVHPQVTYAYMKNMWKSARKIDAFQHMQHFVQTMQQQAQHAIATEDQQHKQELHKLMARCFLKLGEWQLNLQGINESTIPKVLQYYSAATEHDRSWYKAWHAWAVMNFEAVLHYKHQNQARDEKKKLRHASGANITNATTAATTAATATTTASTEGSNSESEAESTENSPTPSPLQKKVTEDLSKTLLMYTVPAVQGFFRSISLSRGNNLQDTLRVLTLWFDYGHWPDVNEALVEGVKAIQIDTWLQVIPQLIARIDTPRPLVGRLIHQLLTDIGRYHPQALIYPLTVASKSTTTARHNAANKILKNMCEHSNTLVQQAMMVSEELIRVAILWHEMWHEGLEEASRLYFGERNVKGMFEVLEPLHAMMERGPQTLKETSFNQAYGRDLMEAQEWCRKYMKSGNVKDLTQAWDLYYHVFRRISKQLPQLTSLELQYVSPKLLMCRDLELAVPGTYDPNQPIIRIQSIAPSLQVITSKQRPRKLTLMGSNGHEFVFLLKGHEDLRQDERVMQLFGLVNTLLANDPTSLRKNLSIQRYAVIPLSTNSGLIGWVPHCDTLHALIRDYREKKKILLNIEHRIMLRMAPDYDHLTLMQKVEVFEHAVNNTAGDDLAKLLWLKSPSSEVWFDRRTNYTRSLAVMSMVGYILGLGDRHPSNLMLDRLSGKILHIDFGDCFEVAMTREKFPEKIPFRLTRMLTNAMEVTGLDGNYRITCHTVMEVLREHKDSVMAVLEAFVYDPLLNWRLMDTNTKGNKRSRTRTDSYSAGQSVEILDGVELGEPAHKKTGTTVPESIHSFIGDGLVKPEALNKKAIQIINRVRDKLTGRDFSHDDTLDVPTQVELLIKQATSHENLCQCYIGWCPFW
T2 sequence (P11362 402-822): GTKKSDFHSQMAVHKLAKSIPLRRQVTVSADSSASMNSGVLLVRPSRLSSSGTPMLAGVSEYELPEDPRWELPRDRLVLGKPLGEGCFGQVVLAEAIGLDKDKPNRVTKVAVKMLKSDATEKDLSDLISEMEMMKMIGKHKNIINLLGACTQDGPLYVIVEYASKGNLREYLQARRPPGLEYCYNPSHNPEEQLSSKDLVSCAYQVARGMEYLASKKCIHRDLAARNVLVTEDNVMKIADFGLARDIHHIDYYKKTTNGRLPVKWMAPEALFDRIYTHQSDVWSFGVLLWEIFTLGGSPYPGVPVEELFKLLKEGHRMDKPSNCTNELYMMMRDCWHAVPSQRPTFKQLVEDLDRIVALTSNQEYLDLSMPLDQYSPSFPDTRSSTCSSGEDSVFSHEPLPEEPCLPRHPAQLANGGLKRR

SMILES	inhibition at 1 µM (mTOR) [%]	IC50 (FGFR-1) [nM]	IC50 (FGFR-3) [nM]
COc1cc(C)cc2cc(-c3c(COCCO)c(CN4CCNCC4)n4ncnc(N)c34)sc12 [Example 22, 2-{[4-Amino-5-(7-methoxy-5-methyl-1-benzothiophen-2-yl)-7-(piperazin-1-ylmethyl)pyrrolo[2,1-f]-[1,2,4]triazin-6-yl]methoxy}ethanol dihydrochloride]	17.6	0.9	4.7
COc1cc(C)cc2cc(-c3c(COCCN)c(CN4CCNCC4)n4ncnc(N)c34)sc12 [Example 30, 6-[(2-Aminoethoxy)methyl]-5-(7-methoxy-5-methyl-1-benzothiophen-2-yl)-7-(piperazin-1-ylmethyl)pyrrolo[2,1-f][1,2,4]triazin-4-amine trihydrochloride]	21.1	2.8	6.4
COc1cc(C)cc2cc(-c3c(CNCCO)c(CN4CCNCC4)n4ncnc(N)c34)sc12 [Example 39, 2-({[4-Amino-5-(7-methoxy-5-methyl-1-benzothiophen-2-yl)-7-(piperazin-1-ylmethyl)pyrrolo[2,1-f]-[1,2,4]triazin-6-yl]methyl}amino)ethanol trihydrochloride]	11.5	1.1	4.9
COc1cc(C)cc2cc(-c3c(CN4CCCC4)c(CN4CCNCC4)n4ncnc(N)c34)sc12 [Example 45, 5-(7-Methoxy-5-methyl-1-benzothiophen-2-yl)-7-(piperazin-1-ylmethyl)-6-(pyrrolidin-1-ylmethyl)pyrrolo[2,1-f][1,2,4]triazin-4-amine trihydrochloride]	15.5	3.4	9.7
COc1cc(C)cc2cc(-c3c(CNC4CC4)c(CN4CCNCC4)n4ncnc(N)c34)sc12 [Example 46, 6-[(Cyclopropylamino)methyl]-5-(7-methoxy-5-methyl-1-benzothiophen-2-yl)-7-(piperazin-1-ylmethyl)pyrrolo[2,1-f][1,2,4]triazin-4-amine trihydrochloride]	11	3.2	8.1
COc1cc(C)cc2cc(-c3c(CNCC4CC4)c(CN4CCNCC4)n4ncnc(N)c34)sc12 [Example 47, 6-{[(Cyclopropylmethyl)amino]methyl}-5-(7-methoxy-5-methyl-1-benzothiophen-2-yl)-7-(piperazin-1-ylmethyl)pyrrolo[2,1-f][1,2,4]triazin-4-amine trihydrochloride]	14.7	1.7	3.4
COc1cc(C)cc2cc(-c3c(CN)c(CN4CCNCC4)n4ncnc(N)c34)sc12 [Example 62, 6-(Aminomethyl)-5-(7-methoxy-5-methyl-1-benzothiophen-2-yl)-7-(piperazin-1-ylmethyl)pyrrolo[2,1-f][1,2,4]triazin-4-amine trihydrochloride]	0.2	3.1	11
COc1cc(C)cc2cc(-c3c(CNC(C)=O)c(CN4CCNCC4)n4ncnc(N)c34)sc12 [Example 64, N-{[4-Amino-5-(7-methoxy-5-methyl-1-benzothiophen-2-yl)-7-(piperazin-1-ylmethyl)pyrrolo[2,1-f][1,2,4]triazin-6-yl]methyl}acetamide dihydrochloride]	1.1	1	2.9
